The test system of assay [1] is Mycobacterium tuberculosis H37Rv (ATCC 27294). Kind of assay: Microplate Alamar Blue Assay (MABA). It counts as cell-based. To be noted: M. tuberculosis H37Rv, BACTEC 12B medium, pH 6.8, concentration effecting 90% reduction in fluorescence relative to controls. Here is the method:
A series of in vitro tests were carried out to determine the properties of known compounds alongside a rhenium derivative of an in vivo imaging agent of the present invention. These tests were the Microplate Alamar Blue Assay (MABA) (Franzblau S et al., J Clin Microbiol 1998, 36, 362-366), the Low Oxygen Recovery Assay (LORA) (Cho et al., Antimicro Agents Chemother 2007, 51, 1380-1385), and the VERO cell cytotoxicity assay to determine IC 50 (Cory A H et al., Cancer Commun 1991, 3, 207-12).
The initial screen was conducted against Mycobacterium tuberculosis H37Rv (ATCC 27294) in BACTEC 12B medium using the Microplate Alamar Blue Assay (MABA). Compounds were tested in ten 2-fold dilutions, typically from 100 μg/mL to 0.19 μg/mL at pH 6.8. The MIC90 is defined as the concentration effecting a reduction in fluorescence of 90% relative to controls. This value was determined from the dose-response curve using a curve-fitting program.
Background: The colour change of resazurin is a common sign of viable cells or microbes.

Another assay deals with VERO cell. Kind of assay: VERO cell cytotoxicity assay. It counts as cell-based. The settings on record: Chlorocebus sabaeus, 72 hours exposure, Cell Titer Glo viability.

We go through three compounds from patent US20130149249A1, “IMAGING TUBERCULOSIS WITH PYRAZINAMIDE CONTRAST AGENTS” (GE HEALTHCARE LIMITED, priority 2010, published 2013).

SMILES strings stand for the structures. ≈ marks a conversion by molar mass, not a printed value.

In the case of `COc1ccc(CSCCNCCN(CCCN)CCSCc2ccc(OC)cc2)cc1` [Chelate alone], in assay [1], the minimum inhibitory concentration (MIC) (as a rule, the lowest concentration that inhibits growth of the organism) amounted to 1.49 µg/mL (≈ 3.12 µM). In the assay with VERO cell, the IC50 – broadly, the concentration that inhibits the measured activity by half – was greater than 50 µg/mL.

In assay [1], `COc1ccc(CSCCNCCN(CCCNC(=O)c2cnccn2)CCSCc2ccc(OC)cc2)cc1` [PZA + Chelate] returned a minimal inhibitory concentration (MIC) of 10.4 µg/mL. In the assay with VERO cell, this compound registered a half-inhibitory concentration (IC50) of 36.8 µg/mL.

Take `NC(=O)c1cnccn1` [Standard drug, Pyrazinamide]: the MIC in assay [1] was greater than 100 µg/mL.
